# Experimental data: patent US20060223849A1, “Benzazole derivatives, compositions, and methods of use as beta-secretase inhibitors” (priority 2005, published 2006)
# Test system: HEK293 cells stably expressing wildtype human APP695 protein (HEK-APPwt cells)
# Experiment: Aβ cell based assay (Aβ1-40 secretion, ELISA)
# Conditions: 1 hr room temperature then five-hour incubation at 37° C., Aβ1-40 ELISA, DAPT as 100% inhibition reference, read-out: EC50, reduction of Aβ1-40 secretion in the cell based assay
# Method: Aβ Cell Based Assay Procedure
# In the following assay, the proteolytic activity of BACE in cells exposed to varying concentrations of a compound of interest is measured by observing the amount of Aβ1-40 secreted from HEK293 cells (Human Embryonic Kidney epithelial cell line) stably expressing either wildtype human APP695 protein (HEK-APPwt cells).
# HEK-APPwt cells were grown in high glucose DMEM (Dulbecco's Modified Eagles Medium) with 4500 mg glucose/L,L-glutamine, NaHCO3, pyrdoxin HCl, 10 mM HEPES (4-(2-hydroxyethyl)-1-piperazineethanesulfonic acid) (pH 7.4), 0.1 mM NEAA (Non-essential Amino Acids) (GIBCO Cat#11140-050), 10% fetal bovine serum and 250 μg/ml hygromycin in T-225 flasks at 37° C. with CO2 and humidity control.
# Test compounds were initially prepared in DMSO and diluted with DMEM media containing 2% FBS (Fetal bovine serum) and 0.05% Tween20. Ten standard compound solutions were prepared having a range of concentrations. The standard compound solutions were used to determine the EC50 of the test compound. The range of concentrations chosen may depend on the compound's predicted potency.
# To prepare the cells for the assay, a flask containing HEK-APPwt cells were trypsinized briefly (1 mL trypsin), and once the cells detached, 4 mL of 10% FBS-DMEM was added to the flask. The detached cells were centrifuged at 900 rpm for 5 min to form a pellet.
# The HEK-APPwt cell pellet was re-suspended with 10 mL DMEM media containing 2% FBS. 80 μL of the cell suspension was added to each well of a 96-well cell culture plate to give 100,000 cells/well. 10 μL of a standard compound solution was added to each well of the 96-well cell culture plate followed by 10 μL of Alamar blue solution. The cells were incubated at room temperature for 1 hr, followed by a five-hour incubation in the CO2 incubator at 37° C.
# At the end of the incubation, the plates were removed from incubator, and the supernatant was collected. Aβ1-40 concentration in the medium was measured by using a commercial Aβ1-40 ELISA kit (IBL, Japan). Briefly, the ELISA plates were coated with anti-human Aβ35-40 mouse IgG monoclonal antibody. A horseradish peroxidase enzyme conjugated anti-human Aβ11-28 mouse IgG monoclone antibody was used for detection. The cell culture supernatant was diluted 1:4 fold with (EIA buffer+Protease inhibitor (buffer containing Protease Inhibitor (1 mL PI/30 mL buffer). A 100 μL aliquot of the diluted supernatant was added to each well of the ELISA plate and incubated for 6 hrs at 4° C. The ELISA plate was washed 8 times with phosphate buffered saline (PBS) containing 0.05% Tween 20.
# A 100 μL of detection antibody was then added and incubated for 1 hour at 4° C. The plate was washed 8 times with PBS buffer containing 0.05% Tween 20 followed by addition of 100 μL of the substrate with the chromogen tetramethyl benzidine (TMB). The plate was incubated in the dark at room temperature for about 30 min and a stop solution (1N H2SO4) was added.
# The intensity of the color developed was measured at 450 nm. The optical density at 450 nm (OD450) is proportional to the concentration of human Aβ1-40 secreted by the cell. As a reference, N—[N-(3,5-difluorophenacetyl-L-alanyl)]-S-phenylglycine t-butyl ester (DAPT, a γ-secretase inhibitor) was used to indicate 100% inhibition of BACE activity. Thus, the assay measures the ability of a compound of interest to reduce Aβ1-40 secretion. Compound potency was reported as the EC50 by calculating the percent inhibition at all concentration levels and the data were fit with non-linear curve fitting algorithm using in GraphPad Prism.
row,Structure (SMILES),EC50 [nM]
1,"O=C(Nc1nc2c(C(=O)Nc3ncc[nH]3)cccc2[nH]1)c1cccc(C#Cc2ccccc2)n1 [Example 416, 2-[(6-phenylethynyl-pyridine-2-carbonyl)-amino]-1H-benzoimidazole-4-carboxylic acid (1H-imidazol-2-yl)-amide]",≤ 2000
2,"COc1ccc(CNC(=O)c2cccc3nc(NC(=O)c4cc5ccccc5cn4)[nH]c23)cc1 [Example 165, Isoquinoline-3-carboxylic acid [7-(4-methoxy-benzylcarbamoyl)-1H-benzoimidazol-2-yl]-amide]",≤ 2000
3,"CC(C)(C)C#Cc1cccc(C(=O)Nc2nc3c(C(=O)Nc4ncc[nH]4)cccc3[nH]2)n1 [Example 428, Ar = 6-(3,3-Dimethyl-but-1-ynyl)-pyridine-2-yl]",≤ 2000
4,"O=C(Nc1nc2c(C(=O)Nc3ncc[nH]3)cccc2[nH]1)c1cncc(-c2cccc(F)c2)c1 [Example 351, Ar = 5-(3-Fluoro-phenyl)-pyridine-3-yl]",≤ 2000
5,"O=C(Nc1nc2cccc(C(=O)Nc3ncc[nH]3)c2[nH]1)c1cc2ccccc2cn1 [Example 58, isoquinoline-3-carboxylic acid [4-(1H-imidazol-2-ylcarbamoyl)-1H-benzoimidazol-2-yl]-amide]",≤ 2000
6,"COc1cc2cnc(C(=O)Nc3nc4c(C(=O)Nc5ncc[nH]5)cccc4[nH]3)cc2cc1OC [Example 312, Ar = 6,7-Dimethoxy-isoquinoline-3-yl]",≤ 2000
7,"O=C(Nc1nc2c(C(=O)Nc3ncc[nH]3)cccc2[nH]1)c1cccc(-c2ccco2)n1 [Example 355, Ar = 6-(Furan-2-yl)-pyridine-2-yl]",≤ 2000
8,"O=C(Nc1nc2c(C(=O)Nc3ncc[nH]3)cccc2[nH]1)c1cccc(C#CC2CC2)n1 [Example 439, Ar = 6-(Cyclopropylethynyl)-pyridine-2-yl]",≤ 2000
9,"CN1CCc2nc(NC(=O)c3cccc4[nH]c(NC(=O)c5cc6ccccc6cn5)nc34)sc2C1 [Example 212, Isoquinoline-3-carboxylic acid [4-(5-methyl-4,5,6,7-tetrahydro-thiazolo[5,4-c]pyridin-2-ylcarbamoyl)-1H-benzoimidazol-2-yl]-amide]",≤ 2000
10,"CS(=O)(=O)c1ccc(CNC(=O)c2cccc3[nH]c(NC(=O)c4cc5ccccc5cn4)nc23)cc1 [Example 155, isoquinoline-3-carboxylic acid [4-(4-methanesulfonyl-benzylcarbamoyl)-1H-benzoimidazol-2-yl]-amide]",≤ 2000
11,"Cc1nc(C(=O)Nc2nc3c(C(=O)Nc4ncc[nH]4)cccc3[nH]2)cc2ccccc12 [Example 300, 1-methyl-isoquinoline-3-carboxylic acid [4-(1H-imidazol-2-ylcarbamoyl)-1H-benzoimidazol-2-yl]-amide]",≤ 2000
12,"COc1ccc(CCNC(=O)c2cccc3nc(NC(=O)c4cc5ccccc5cn4)[nH]c23)cc1 [Example 176, Isoquinoline-3-carboxylic acid {7-[2-(4-methoxy-phenyl)-ethylcarbamoyl]-1H-benzoimidazol-2-yl}-amide]",≤ 2000
13,"O=C(Nc1ncc[nH]1)c1ccc2[nH]c(NC(=O)c3cc4ccccc4cn3)nc2c1 [Example 140, isoquinoline-3-carboxylic acid [5-(1H-imidazol-2-ylcarbamoyl)-1H-benzoimidazol-2-yl]-amide]",≤ 2000
14,"Cn1ccnc1CN1CCc2nc(NC(=O)c3cccc4[nH]c(NC(=O)c5cc6ccccc6cn5)nc34)sc2C1 [Example 247, Isoquinoline-3-carboxylic acid {4-[5-(1-methyl-1H-imidazol-2-ylmethyl)-4,5,6,7-tetrahydro-thiazolo[5,4-c]pyridin-2-ylcarbamoyl]-1H-benzoimidazol-2-yl}-amide]",≤ 2000
15,"CCOc1cc(C(=O)Nc2ncc[nH]2)c2[nH]c(NC(=O)c3cc4ccccc4cn3)nc2c1 [Example 472, isoquinoline-3-carboxylic acid [5-ethoxy-7-(1H-imidazol-2-ylcarbamoyl)-1H-benzoimidazol-2-yl]-amide]",≤ 2000
